# Reference: patent publication EP0338042B1, “COMPOSITION AND METHOD FOR TREATING HEPATITIS VIRUS INFECTIONS USING 1-(2'-DEOXY-2'-FLUORO-BETA-D-ARABINOFURANOSYL)-5-ETHYLURACIL” (priority 1987, dated 1989)
# Several values for one entry are separate records, joined by “and”; a condition that tells them apart may be missing. Identical values can stand only once. Like-named read-outs stand apart in the source and are kept apart here.
# Legend:
# [1] = tested on: woodchuck hepatitis virus (WHV); assay: Inhibition of WHV replication in chronically infected woodchucks (DNA polymerase activity); assay type: in vivo, woodchucks (Marmota monax); conditions: for WHV replication by day 60: all 5 animals
# Protocol: All woodchucks bearing chronic active hepatitis virus (Hantz, supra) were administered FMAU twice daily by interperitoneal injections of FMAU in the following dosages:
# Studies were then undertaken to evaluate FMAU and FEAU in this animal model using woodchucks naturally chronically-infected with woodchuck hepatitis virus (24). It was assumed that these nucleosides would be anabolized to their nucleoside triphosphates within the animal. WHV replication was measured periodically by the endogenous DNA polymerase activity and by the detection of WHV DNA by the dot-blot hybridization assay. Three different dosages of FMAU and FEAU were investigated. FMAU at 2 mg/kg/day x 5, (given intraperitoneally TABLE VIII
# In accordance with the procedures of Example 2, the FEAU inhibition of WHV replication was further studied at different doses administered orally to woodchucks through stomach tubes. Two groups of woodchucks with different initial WHV replication values were examined.
# Seven woodchucks with high WHV replication were tested. High replication was defined as over 1000 counts per minute of DNA polymerase activity, and the mean replication was 1600.
# Seven woodchucks with low WHV replication were tested. Low replication was defined as lower than 1000 counts per minute of DNA polymerase activity, and the mean replication was 600-800.
# HSV-1(F) [2] = assay: Plaque reduction assay in Vero cells; assay type: cell-based; conditions: monkey
# Source text: (§1) With FMAU as a lead compound, the syntheses of other 5-alkyl substituted 2′-fluoro-ara-uracils were undertaken (8, 9), including 1-(2′-deoxy-2′-fluoro-beta-D-arabinofuranosyl)-5-ethyluracil [FEAU].
# HSV-2(G) [3] = assay: Plaque reduction assay in Vero cells; assay type: cell-based; conditions: monkey
# Source text: as §1
# HL-60 CELLS = assay: Inhibition of cell growth; assay type: cell-based; conditions: Homo sapiens, HL-60, read-out: ED50 FOR INHIBITING CELL GROWTH IN HL-60 CELLS
# Vero cells [4] = assay: Inhibition of cell growth; assay type: cell-based, African green monkey; conditions: Chlorocebus sabaeus, read-out: ED50 FOR INHIBITING CELL GROWTH IN VERO CELLS
# P-815 CELLS = assay: Inhibition of thymidine incorporation into DNA; assay type: cell-based, rodent; conditions: Mus musculus, P815, read-out: ED50 FOR […] INC[…] DNA, P-815 CELLS; read-out: ED50 FOR INHIBITING THYMIDINE INCORPORATION INTO DNA, P-815 CELLS
# L-1210 CELLS = assay: Inhibition of thymidine incorporation into DNA; assay type: cell-based, rodent; conditions: Mus musculus, L1210, read-out: ED50 FOR […] INC[…] DNA, L-1210 CELLS; read-out: ED50 FOR INHIBITING THYMIDINE INCORPORATION INTO DNA, L-1210 CELLS
# RAT BONE MARROW CELLS = assay: Inhibition of thymidine incorporation into DNA; assay type: cell-based; conditions: Bone marrow cell, read-out: ED50 FOR […] INC[…] DNA, RAT BONE MARROW CELLS, read-out: ED50 FOR INHIBITING THYMIDINE INCORPORATION INTO DNA, RAT BONE MARROW CELLS
# L-1210 = assay: Incorporation of 2-14C-labeled nucleoside into DNA of cells; assay type: cell-based, rodent; conditions: FEAU also not detectable at 100 μM
# Source text: (§2) There was no detectable incorporation of FEAU radioactivity into the DNA of either L-1210 or Vero cell lines, but substantial amounts of FMAU radioactivity were incorporated into the DNA of both cell lines. When HSV-1 infected Vero cells were exposed to ¹⁴C-labeled FEAU and FMAU, both nucleosides incorporated into the DNA of these virus-infected cells.
# [5] = tested on: HSV-1 INFECTED VERO CELLS; assay: as above; assay type: cell-based, African green monkey; conditions: [2-14C] labeled nucleoside
# Source text: as §2
# VERO = assay: as above; assay type: cell-based, African green monkey; conditions: FEAU also not detectable at 100 μM
# Source text: as §2
# HSV-1(F) [6] = conditions: plaque reduction in Vero cells, cited from earlier work
# HSV-2(G) [7] = conditions: plaque reduction in Vero cells, cited from earlier work
# Vero cells [8] = conditions: cytotoxic effect measured in rapidly dividing cells; read-out: ID₅₀; cited from earlier work
# [9] = cited from earlier work
# [10] = tested on: simian varicella virus (SVV); assay: Simian varicella virus infection in the African green monkey; conditions: for VIREMIA - MEAN PFU ON DAYS P.I. 3: IV twice daily for ten days from 48 hours after inoculation; for VIREMIA - MEAN PFU ON DAYS P.I. 5 / VIREMIA - MEAN PFU ON DAYS P.I. 7 / VIREMIA - MEAN PFU ON DAYS P.I. 9 / VIREMIA - MEAN PFU ON DAYS P.I. 11: IV twice daily for ten days
# [11] = 0.2 mg/kg/day, FMAU x 5, FEAU x 10
# [12] = FEAU 3 MG/KG/DAY, one line per monkey
# [13] = FEAU 10 MG/KG/DAY, one line per monkey
# [14] = FEAU 30 MG/KG/DAY, one line per monkey
smiles,measurement,setting,value
"CCc1cn([C@@H]2O[C@H](CO)[C@@H](O)[C@@H]2F)c(=O)[nH]c1=O [FEAU, 1-(2'-deoxy-2'-fluoro-beta-D-arabino-furanosyl)-5-ethyl-uracil]",anti-WHV effect,[1]; 0.04 mg/kg/day x 10,somewhat diminished anti-WHV effect
same,suppression of viral replication,[1]; [11],equally effective
same,toxicity,[1]; [11],nontoxic
same,inhibitory activity after cessation of drug administration,"[1]; 0.2 or 2 mg doses, slow return to pretreatment levels",remained significant over a six-week period
same,WHV replication by the twenty-third day,"[1]; high replication woodchucks (>1000 cpm), oral 0.2 mg/kg/day, four of five still above normal level (50 cpm)",lowered replication values
same,WHV replication by day 60,"[1]; high replication woodchucks, oral 0.2 mg/kg/day, raised to 1 mg/kg/day on day 24 in four of five",completely inhibited
same,WHV replication,[1]; i.p. 2 mg/kg/day x 10,almost immediate suppression
same,weight loss,[1]; in vivo,about 10%
same,toxicity,"[1]; in vivo, ip, 2 mg/kg/day",did not exhibit any toxic effects
same,toxicity,"[1]; in vivo, po, 0.2 mg/kg/day",without any observed toxicity
same,WHV replication by the twenty-third day,"[1]; low replication woodchucks (<1000 cpm), oral 0.04 mg/kg/day, two of five still above normal level",lowered replication values
same,WHV replication by day 60,"[1]; low replication woodchucks, oral 0.04 mg/kg/day, raised to 0.2 mg/kg/day on day 24 in two of five",completely inhibited
same,WHV replication,"[1]; oral administration, 0.2 mg/kg/day x 10, one woodchuck, preliminary",significant suppression
same,THER. INDEX ID₅₀/ED₉₀ HSV-1,HSV-1(F) [2],769
same,THER. INDEX ID₅₀/ED₉₀ HSV-2,HSV-2(G) [3],220
same,EC50,HL-60 CELLS,2060 µM
same,EC50,Vero cells [4],> 200 µM
same,EC50,P-815 CELLS,700 µM
same,EC50,L-1210 CELLS,630 µM
same,EC50,RAT BONE MARROW CELLS,3700 µM
same,"INCORPORATION INTO DNA AT 10μM, L-1210",L-1210,NOT DETECTABLE*
same,"INCORPORATION INTO DNA AT 10μM, HSV-1 INFECTED VERO CELLS",[5],0.48 p MOLE/10^6 CELLS/HR
same,"INCORPORATION INTO DNA AT 10μM, VERO",VERO,NOT DETECTABLE*
same,EC50,HSV-1(F) [6]; read-out: HSV-1(F) ED₅₀,0.024 µM
same,EC90,HSV-1(F) [6]; read-out: HSV-1(F) ED₉₀,0.26 µM
same,EC50,HSV-2(G) [7]; read-out: HSV-2(G) ED₅₀,0.24 µM
same,EC90,HSV-2(G) [7]; read-out: HSV-2(G) ED₉₀,0.91 µM
same,CC50,Vero cells [8],200 µM
same,toxicity,[9]; in vivo experiments with mice,relatively nontoxic
same,toxicity,"[9]; normal (uninfected) mice, 800 mg/kg/day given twice daily for 4 days",non-toxic
same,minimal effective dose,"[10]; Cercopithecine alphaherpesvirus 9, in Primates",~1 mg/kg/day
same,RASH -SEVERITY ON DAYS P.I. 9,"[10]; FEAU 1 MG/KG/DAY by stomach tube twice daily for ten days, one line per monkey",±
same,VIREMIA - MEAN PFU ON DAYS P.I. 3,[10]; [12],1 PFU and 0 PFU
same,VIREMIA - MEAN PFU ON DAYS P.I. 5,[10]; [12],8 PFU and 1 PFU
same,VIREMIA - MEAN PFU ON DAYS P.I. 7,[10]; [12],0 PFU and 1 PFU
same,VIREMIA - MEAN PFU ON DAYS P.I. 9,[10]; [12],0 PFU
same,VIREMIA - MEAN PFU ON DAYS P.I. 11,[10]; [12],0 PFU
same,VIREMIA - MEAN PFU ON DAYS P.I. 3,[10]; [13],1 PFU and 0 PFU
same,VIREMIA - MEAN PFU ON DAYS P.I. 5,[10]; [13],14 PFU and 1 PFU
same,VIREMIA - MEAN PFU ON DAYS P.I. 7,[10]; [13],5 PFU and 1 PFU
same,VIREMIA - MEAN PFU ON DAYS P.I. 9,[10]; [13],0 PFU
same,VIREMIA - MEAN PFU ON DAYS P.I. 11,[10]; [13],0 PFU
same,VIREMIA - MEAN PFU ON DAYS P.I. 3,[10]; [14],1 PFU and 2 PFU
same,VIREMIA - MEAN PFU ON DAYS P.I. 5,[10]; [14],0 PFU
same,VIREMIA - MEAN PFU ON DAYS P.I. 7,[10]; [14],0 PFU
same,VIREMIA - MEAN PFU ON DAYS P.I. 9,[10]; [14],0 PFU
same,VIREMIA - MEAN PFU ON DAYS P.I. 11,[10]; [14],0 PFU
same,rash,"[10]; intravenous route, 30, 10 and 3 mg/kg/day x 10",none of the FEAU-treated monkeys developed rash
same,hematology tests and serum chemistries,"[10]; intravenous route, 30, 10 and 3 mg/kg/day x 10, all treated monkeys",normal
same,toxicity,"[10]; intravenous route, three dose levels up to 30 mg/kg/day x 10",no apparent toxicity
same,rash,[10]; lower dose of 1 mg/kg/day,prevented development of rash
same,viremia,[10]; lower dose of 1 mg/kg/day,did not reduce viremia in two of three monkeys
same,viremia,"[10]; oral administration, 10, 3 or 1 mg/kg/day x 10",reduced viremia significantly
same,toxicity,"[10]; oral route, 10 mg/kg/day x 10",without any observed toxicity
